Reference: patent US20230129866A1 (PureTech LYT 100, Inc., priority 2020, published 2023)

What was measured:
[1] = tested on: Primary Mouse Lung Fibroblasts (PMLF); experiment: Survival and TGF-β-induced proliferation of Primary Mouse Lung Fibroblasts (MTT); assay type: cell-based; conditions: 500 μM, 72 hrs, FIG. 3A
Method: Primary Mouse lung fibroblast were prepared as follows. One lung was removed from 2 months old male BaIbC Mouse, perfused with sterile PBS, minced and incubated in 2 ml of serum free Dulbecco's Modified Eagle's Medium (DMEM) containing 100 μg/ml of collagenase I for one hour at 37° C. Each sample was centrifuged at 1500 r.p.m (revolution per minute) for 5 minutes, washed three times with PBS and the final cellular pellet was resuspended in DMEM supplemented with 10% serum and Pen/Strep, and incubated in 150 mm plates at 37 °C with 80% humidity and […]. The growth medium was removed and fresh medium was added every day for 10 days.
At the end of 10-day incubation period above, lung fibroblasts were confluent. […] One hundred μL of the growth medium was removed and 20 μL of MTT stock solution (prepared in PBS at 5.5 mg/ml concentration) was added and cells were incubated for 4 hours, then 100 μl of DMSO was added, and absorbance of developed color was monitored at 540-690 nm.

[2] = human, in vivo, po
Description: Following screening, eligible healthy volunteer subjects were admitted to a single clinical study site and were randomized to 1 of 2 treatment sequences. […] In each period, a standardized breakfast was provided to subjects prior to administration of study drug (to compare the PK profiles in the clinically relevant fed state) and plasma samples were collected over a 48-hour period after dosing for evaluation of PK. Dosing between the 2 periods was separated by a minimum of 7 days. Subjects completed the study upon completion of the 48-hour post-dose assessments following dosing period 2.
All capsules were identical in size, shape, and external color.

[3] = Phase 1 multiple ascending dose (MAD) study Part 1, healthy volunteers (PK and safety); conditions: 100 to 1000 mg BID, 5 days
Method: (§4) Up to 5 dosing cohorts are planned in Part 1.
(§5) Additional cohorts and intermediate doses may be selected in lieu of predefined doses as noted and in accordance with safety and tolerability responses, but doses will not exceed 1000 mg BID or a total daily dose of 2000 mg.
(§6) A standardised lunch will be served ≥4 h post breakfast and ≥4 h prior to dinner. An evening snack will be served ≥3 h following evening study medication administration. No additional fluids will be allowed during the 1 h pre- and post-doses. On Day 6, subjects will replicate mealtimes as scheduled on Day 1-5.
(§7) Plasma PK parameters (non-compartmental or compartmental analysis as appropriate) will include, but are not limited to: • Following single dose: Tmax, tlag, Cmax, AUC0-4, AUC0-last, t1/2, AUC0-inf, lambda z, %AUCext, CL/F, Vz/F, Cmax/D, AUC0-last/D, AUC0-inf/D and MRT (D is dose) • After repeated doses: Ctrough, Ctrough/D • Following repeated doses on last day: Tmax, Cmax, Cavg, tlag, t1/2, AUC0-4, AUC0-last; AUC0-inf, lambda z, %AUCext, CLss/F, Vzss/F, MRT, PTF, Rac(AUC), Rac(Cmax), Cmax/D, AUClast/D, AUC0-inf/D and Rae (accumulation ratio).

[4] = In vitro comparative mass balance and metabolite studies in liver microsomes; assay type: in vitro ADME, human, rat, dog, mouse, monkey
Description: Both LYT-100 and pirfenidone share a common major metabolite.

L929 cells [5] = experiment: TGF-induced collagen synthesis in L929 cells, 6-wells (SIRCOL); assay type: cell-based; conditions: 72 hrs, FIG. 4B
Method: 100,000 L929 cells were plated in complete DMEN and incubated until confluency for 3 days. Medium was removed and complete DMEM containg Prolin ([…]) and ascorbic acid (10 μM) was added. […] Cells were further incubated for 72 hrs. Supernatant was removed, cells were washed with cold PBS, 1 ml SIRCOL reagent was added onto the cells and cells were scraped off, samples were shaken for 5 h.at RT, centrifuged at 10.000 rpm for 5 min, supernatant was removed, pellet was dissolved in 0.5 M acetic acid to remove unbound dye, and re-centrifuged at 10.000 rpm for 5 min, supernatant was removed and final pelet was dissolved in 1 ml 0.5M NaOH, shaken at RT for 5 h, 100 μl of resulted solution was placed in 96-well and O.D was determined at 600.

[6] = human, in vivo
Method: as §4, §5, §6, §7

NASH mice = experiment: Streptozotocin/high fat diet NASH mouse model: Sirius-red fibrosis area and NAFLD Activity Score; assay type: in vivo; conditions: n = 8
Description: Non-alcoholic steatohepatitis (NASH) is characterized by lobular inflammation, hepatocyte ballooning and degeneration progressing to liver fibrosis. […] In addition, nine non-NASH mice were fed with a normal diet and monitored.
While LYT-100 hepatocyte ballooning was similar to Vehicle, scores were lower for lobular inflammation and steatosis. (Table 6 and 7).

LPS-induced plasma TNFα = experiment: LPS-induced plasma TNF-α after oral pretreatment in rats; assay type: in vivo, Sprague-Dawley rats; conditions: Mean ± St. Dev., n = 6-8; for Plasma TNFα concentrations 4 hours after LPS: vehicle 693 ± 553; for Plasma TNFα concentrations 1.5 hours after LPS: vehicle 75389 ± 29107
Method: (§1) LPS was diluted with sterile saline to […] and sonicated at 40° C. for 20 minutes to generate a stock solution and stored at 4° C. Each day of use, the stock solution was further diluted to 0.03 mg/mL in sterile saline.
(§2) Male Sprague-Dawley rats with indwelling femoral and jugular venous catheters (n=6-8 per dose and test article group) were used in this study. […] Sixty minutes after the oral dose, 0.03 mg/kg of LPS in 1 mL/kg saline was infused into the jugular vein.
(§3) Blood samples were collected from the femoral vein into heparin-coated syringes 15 minutes prior to the LPS infusion (45 minutes after oral doses of test article), 90 minutes after the LPS infusion and 4 hours after the LPS infusion. Plasma was prepared by centrifugation of the blood samples at 14,000 rpm for 10 minutes. Plasma samples were stored at −70 ° C. until analysis.

LPS-induced plasma IL-6 = LPS-induced plasma IL-6 after oral pretreatment in rats; assay type: in vivo, Sprague-Dawley rats; conditions: Mean ± St. Dev, n = 6-8; for Plasma IL-6 concentrations 4 hours after LPS: vehicle 13989 ± 6125; for Plasma IL-6 concentrations 1.5 hours after LPS: vehicle 40423 ± 8653
Method: as §1, §2, §3

[7] = Phase 1 food effect study Part 2 (Cohort 5), single 500 mg dose fed vs fasted; assay type: in vivo, human; conditions: LYT-100 @500 mg single dose
Method: The comparison will be based on Day 1, Day 2 and Day 3 PK plasma samples after the first dose of study drug on Day 1 under fast and fed conditions of Part 2.
Subjects will be admitted to the CRU on Day-1 and will fast overnight for at least 10 h.

L929 cells [8] = experiment: Survival of L929 cells (MTT); assay type: cell-based; conditions: 500 μM, TGFb 5 ng/ml, 72 hrs, FIG. 4A
Method: Five thousand L929 cells were plated in completed DMEN and incubated until confluency for 3 days. Medium was removed and complete DMEM containg Prolin (20 μg/ml) and ascorbic acid (10 μM) was added. […] 100 μL of medium was removed, 20 μL MTT solution was added for 4 hrs, then 100 μl of DMSO was added, and absorbance of developed dark pink color was determined at […].

[9] = 30 mg/kg oral pretreatment 1 hour prior to LPS injection
[10] = 100 mg/kg oral pretreatment 1 hour prior to LPS injection
[11] = 300 mg/kg oral pretreatment 1 hour prior to LPS injection

Q: What does the source list for `[2H]C([2H])([2H])c1ccc(=O)n(-c2ccccc2)c1` [LYT-100, 5-(methyl-d3)-1-phenylpyridin-2-(1H)-one]?
A: Effect on survival of PMLF alone [1]: did not affect the survival; Tolerability of single doses [2]: well tolerated; Maximally tolerated dose [3]: no maximally tolerated dose was reached; Novel metabolites through deuteration ([4]; human, rat, dog, mouse, and monkey liver microsomes): did not introduce novel; Rate of metabolism compared with pirfenidone ([4]; liver microsomes): occurred more slowly; Effect on TGF-induced collagen synthesis (L929 cells [5]; 500 μM 1 hour prior to TGF-β 5 ng/ml): inhibits; Effect on collagen synthesis in the absence of added TGF-β (L929 cells [5]; 500 μM): significantly inhibits; Dose dependence of AUC96-108 across all dose Cohorts [6]: linear dose proportionality; Dose limiting toxicities [6]: no dose limiting toxicities observed; Grading of adverse events [6]: mild and transient; AEs considered possibly related to treatment ([6]; 5 days): 33; Most common AE, headache: subjects ([6]; 5 days): 25%; Subjects who experienced adverse events ([6]; 5 days): 33 subjects; Total adverse events (AEs) ([6]; 5 days): 72; Steatosis score 0: number of animals (NASH mice; NAS component, score 0 = <5%, LYT-100 30 mg/kg twice daily): 4; Steatosis score 1: number of animals (NASH mice; NAS component, score 1 = 5-33%, LYT-100 30 mg/kg twice daily): 3; Lobular Inflammation score 1: number of animals (NASH mice; NAS component, score 1 = <2 foci/200x, LYT-100 30 mg/kg twice daily): 5; Lobular Inflammation score 2: number of animals (NASH mice; NAS component, score 2 = 2-4 foci/200x, LYT-100 30 mg/kg twice daily): 3; Steatosis score 2: number of animals (NASH mice; NAS component, score 2 = >33%-66%, LYT-100 30 mg/kg twice daily): 1; Hepatocyte ballooning score 2: number of animals (NASH mice; NAS component, score 2 = Many cells/prominent ballooning, LYT-100 30 mg/kg twice daily): 8; Fibrosis Area (%) (mean ± SD) (NASH mice; Sirius-red stained liver sections, LYT-100 30 mg/kg orally twice daily from 6-9 weeks of age, p < 0.01 vs Vehicle (1.02 ± 0.20)): 0.64 ± 0.31 %; Plasma TNFα concentrations 4 hours after LPS (LPS-induced plasma TNFα; [9]): 274 ± 95 pg/mL; Plasma TNFα concentrations 1.5 hours after LPS (LPS-induced plasma TNFα; [9]): 46382 ± 23254 pg/mL; Plasma TNFα concentrations 4 hours after LPS (LPS-induced plasma TNFα; [10]): 129 ± 65 pg/mL; Plasma TNFα concentrations 1.5 hours after LPS (LPS-induced plasma TNFα; [10]): 6403 ± 4812 pg/mL; Plasma TNFα concentrations 4 hours after LPS (LPS-induced plasma TNFα; [11]): 79 ± 46 pg/mL; Plasma TNFα concentrations 1.5 hours after LPS (LPS-induced plasma TNFα; [11]): 3162 ± 2668 pg/mL; Plasma IL-6 concentrations 4 hours after LPS (LPS-induced plasma IL-6; [9]): 8174 ± 5504 pg/mL; Plasma IL-6 concentrations 1.5 hours after LPS (LPS-induced plasma IL-6; [9]): 18197 ± 6484 pg/mL; Plasma IL-6 concentrations 4 hours after LPS (LPS-induced plasma IL-6; [10]): 4632 ± 5930 pg/mL; Plasma IL-6 concentrations 1.5 hours after LPS (LPS-induced plasma IL-6; [10]): 21642 ± 17174 pg/mL; Plasma IL-6 concentrations 4 hours after LPS (LPS-induced plasma IL-6; [11]): 1550 ± 1414 pg/mL; Plasma IL-6 concentrations 1.5 hours after LPS (LPS-induced plasma IL-6; [11]): 13519 ± 8674 pg/mL; AUC, % Change Fed vs Fasted [7]: −19%; Cmax, % Change Fed vs Fasted [7]: −23%; Tmax, % Change Fed vs Fasted [7]: +25%; Effect on survival of L929 cells (L929 cells [8]): does not affect survival
